{"source": "patent US8609653B2", "about": "“Azaindole compounds and methods for treating HIV” (priority 2011, dated 2013)", "data": [{"tested_on": "HIV", "test": "MT4 assay: antiviral HIV activity in MT-4 cells", "format": "cell-based", "conditions": "Human immunodeficiency virus 1, MT4, 96 h, read-out: HIV MT4 Assay IC50 (μM), HTLV-1 transformed cell line MT-4; read-out 96 hours later with cell titer glo; 10 point dose response", "in_short": "(§1)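 Compounds tested in HTLV-1-transformed MT-4 cells for protection from HIV, with cytotoxicity run in parallel under the same conditions; CellTiter-Glo luminescence read 96 h later. IC50 from 10-point, 3–4-fold serial dilutions spanning >1000-fold, % inhibition relative to no-compound control, fitted by four-parameter logistic.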", "units": {"IC50": "µM"}, "values": [{"molecule": "COc1ccc(Cn2ccc3c(-c4ccc5c(c4)CCCO5)c(C(OC(C)(C)C)C(=O)O)c(C)nc32)cc1C(F)(F)F", "note": "(centres unmarked) [Example 52, 2-(tert-butoxy)-2-(4-(chroman-6-yl)-1-(4-methoxy-3-(trifluoromethyl)benzyl)-6-methyl-1H-pyrrolo[2,3-b]pyridin-5-yl)acetic acid]", "IC50": 0.37}, {"molecule": "Cc1ccc(F)c(Cn2ccc3c(-c4ccc5c(c4)CCCO5)c(C(OC(C)(C)C)C(=O)O)c(C)nc32)c1Cl", "note": "(centres unmarked) [Example 53, 2-(tert-butoxy)-2-(1-(2-chloro-6-fluoro-3-methylbenzyl)-4-(chroman-6-yl)-6-methyl-1H-pyrrolo[2,3-b]pyridin-5-yl)acetic acid]", "IC50": 0.055}, {"molecule": "Cc1ccc(F)cc1Cn1ccc2c(-c3ccc4c(c3)CCCO4)c(C(OC(C)(C)C)C(=O)O)c(C)nc21", "note": "(centres unmarked) [Example 54, 2-(tert-butoxy)-2-(4-(chroman-6-yl)-1-(5-fluoro-2-methylbenzyl)-6-methyl-1H-pyrrolo[2,3-b]pyridin-5-yl)acetic acid]", "IC50": 0.045}, {"molecule": "COc1cccc(F)c1Cn1ccc2c(-c3ccc4c(c3)CCCO4)c(C(OC(C)(C)C)C(=O)O)c(C)nc21", "note": "(centres unmarked) [Example 55, 2-(tert-butoxy)-2-(4-(chroman-6-yl)-1-(2-fluoro-6-methoxybenzyl)-6-methyl-1H-pyrrolo[2,3-b]pyridin-5-yl)acetic acid]", "IC50": 0.021}, {"molecule": "Cc1nc2c(ccn2Cc2c(F)cccc2Cl)c(-c2ccc3c(c2)CCCO3)c1C(OC(C)(C)C)C(=O)O", "note": "(centres unmarked) [Example 56, 2-(tert-butoxy)-2-(1-(2-chloro-6-fluorobenzyl)-4-(chroman-6-yl)-6-methyl-1H-pyrrolo[2,3-b]pyridin-5-yl)acetic acid]", "IC50": 0.025}, {"molecule": "Cc1nc2c(ccn2Cc2cccc(F)c2F)c(-c2ccc3c(c2)CCCO3)c1[C@H](OC(C)(C)C)C(=O)O", "note": "[Example 57, (S)-2-(tert-butoxy)-2-(4-(chroman-6-yl)-1-(2,3-difluorobenzyl)-6-methyl-1H-pyrrolo[2,3-b]pyridin-5-yl)acetic acid]", "IC50": 0.027}, {"molecule": "Cc1nc2c(ccn2Cc2cc(F)ccc2F)c(-c2ccc3c(c2)CCCO3)c1[C@H](OC(C)(C)C)C(=O)O", "note": "[Example 58, (S)-2-(tert-butoxy)-2-(4-(chroman-6-yl)-1-(2,5-difluorobenzyl)-6-methyl-1H-pyrrolo[2,3-b]pyridin-5-yl)acetic acid]", "IC50": 0.08}, {"molecule": "Cc1nc2c(ccn2Cc2ccc(C(F)(F)F)cc2F)c(-c2ccc3c(c2)CCCO3)c1C(OC(C)(C)C)C(=O)O", "note": "(centres unmarked) [Example 59, 2-(tert-butoxy)-2-(4-(chroman-6-yl)-1-(2-fluoro-4-(trifluoromethyl)benzyl)-6-methyl-1H-pyrrolo[2,3-b]pyridin-5-yl)acetic acid]", "IC50": 0.38}, {"molecule": "Cc1nc2c(ccn2Cc2cccc(OC(F)(F)F)c2)c(-c2ccc3c(c2)CCCO3)c1C(OC(C)(C)C)C(=O)O", "note": "(centres unmarked) [Example 60, 2-(tert-butoxy)-2-(4-(chroman-6-yl)-6-methyl-1-(3-(trifluoromethoxy)benzyl)-1H-pyrrolo[2,3-b]pyridin-5-yl)acetic acid]", "IC50": 0.181}, {"molecule": "COc1cccc(Cn2ccc3c(-c4ccc5c(c4)CCCO5)c(C(OC(C)(C)C)C(=O)O)c(C)nc32)c1", "note": "(centres unmarked) [Example 61, 2-(tert-butoxy)-2-(4-(chroman-6-yl)-1-(3-methoxybenzyl)-6-methyl-1H-pyrrolo[2,3-b]pyridin-5-yl)acetic acid]", "IC50": 0.41}, {"molecule": "Cc1nc2c(ccn2Cc2ccc(-n3cncn3)cc2)c(-c2ccc3c(c2)CCCO3)c1C(OC(C)(C)C)C(=O)O", "note": "(centres unmarked) [Example 62, 2-(1-(4-(1H-1,2,4-triazol-1-yl)benzyl)-4-(chroman-6-yl)-6-methyl-1H-pyrrolo[2,3-b]pyridin-5-yl)-2-(tert-butoxy)acetic acid]", "IC50": 0.98}, {"molecule": "Cc1ccc(-c2c(C(OC(C)(C)C)C(=O)O)c(C)nc3c2ccn3Cc2ccc(C(F)(F)F)cc2)cc1", "note": "(centres unmarked) [Example 63, 2-(tert-butoxy)-2-(6-methyl-4-(p-tolyl)-1-(4-(trifluoromethyl)benzyl)-1H-pyrrolo[2,3-b]pyridin-5-yl)acetic acid]", "IC50": 3.96}, {"molecule": "Cc1nc2c(ccn2Cc2ccc(OC(F)(F)F)cc2)c(-c2ccc3c(c2)CCCO3)c1C(OC(C)(C)C)C(=O)O", "note": "(centres unmarked) [Example 64, 2-(tert-butoxy)-2-(4-(chroman-6-yl)-6-methyl-1-(4-(trifluoromethoxy)benzyl)-1H-pyrrolo[2,3-b]pyridin-5-yl)acetic acid]", "IC50": 0.68}, {"molecule": "Cc1nc2c(ccn2CC2CCCCC2)c(-c2ccc3c(c2)CCCO3)c1C(OC(C)(C)C)C(=O)O", "note": "(centres unmarked) [Example 65, 2-(tert-butoxy)-2-(4-(chroman-6-yl)-1-(cyclohexylmethyl)-6-methyl-1H-pyrrolo[2,3-b]pyridin-5-yl)acetic acid]", "IC50": 0.59}, {"molecule": "Cc1nc2c(ccn2CC2CCN(C(=O)OC(C)(C)C)CC2)c(-c2ccc3c(c2)CCCO3)c1C(OC(C)(C)C)C(=O)O", "note": "(centres unmarked) [Example 66, 2-(tert-butoxy)-2-(1-((1-(tert-butoxycarbonyl)piperidin-4-yl)methyl)-4-(chroman-6-yl)-6-methyl-1H-pyrrolo[2,3-b]pyridin-5-yl)acetic acid]", "IC50": 7.34}, {"molecule": "Cc1nc2c(ccn2CC2CCOCC2)c(-c2ccc3c(c2)CCCO3)c1C(OC(C)(C)C)C(=O)O", "note": "(centres unmarked) [Example 67, 2-(tert-butoxy)-2-(4-(chroman-6-yl)-6-methyl-1-((tetrahydro-2H-pyran-4-yl)methyl)-1H-pyrrolo[2,3-b]pyridin-5-yl)acetic acid]", "IC50": 0.59}, {"molecule": "Cc1nc2c(ccn2CC2CCC2)c(-c2ccc3c(c2)CCCO3)c1C(OC(C)(C)C)C(=O)O", "note": "(centres unmarked) [Example 68, 2-(tert-butoxy)-2-(4-(chroman-6-yl)-1-(cyclobutylmethyl)-6-methyl-1H-pyrrolo[2,3-b]pyridin-5-yl)acetic acid]", "IC50": 0.72}, {"molecule": "Cc1ccc(-c2c(C(OC(C)(C)C)C(=O)O)c(C)nc3c2ccn3Cc2ccc(F)c(C(F)(F)F)c2)cc1", "note": "(centres unmarked) [Example 69, 2-(tert-butoxy)-2-(1-(4-fluoro-3-(trifluoromethyl)benzyl)-6-methyl-4-(p-tolyl)-1H-pyrrolo[2,3-b]pyridin-5-yl)acetic acid]", "IC50": 0.25}, {"molecule": "Cc1ccc(-c2c(C(OC(C)(C)C)C(=O)O)c(C)nc3c2ccn3Cc2ccc(F)cc2C)cc1", "note": "(centres unmarked) [Example 70, 2-(tert-butoxy)-2-(1-(4-fluoro-2-methylbenzyl)-6-methyl-4-(p-tolyl)-1H-pyrrolo[2,3-b]pyridin-5-yl)acetic acid]", "IC50": 0.04}, {"molecule": "Cc1ccc(-c2c(C(OC(C)(C)C)C(=O)O)c(C)nc3c2ccn3C2CCCCC2)cc1", "note": "(centres unmarked) [Example 73, 2-(tert-Butoxy)-2-[1-cyclohexyl-6-methyl-4-(4-methylphenyl)-1H-pyrrolo[2,3-b]pyridin-5-yl]acetic acid]", "IC50": 1.31}, {"molecule": "Cc1ccc(-c2c(C(OC(C)(C)C)C(=O)O)c(C)nc3c2ccn3C2CCC(C)CC2)cc1", "note": "[Example 74, 2-(tert-butoxy)-2-(6-methyl-1-((1R,4R)-4-methylcyclohexyl)-4-(p-tolyl)-1H-pyrrolo[2,3-b]pyridin-5-yl)acetic acid]", "IC50": 2.33}, {"molecule": "COCCn1ccc2c(-c3ccc(C)cc3)c(C(OC(C)(C)C)C(=O)O)c(C)nc21", "note": "(centres unmarked) [Example 75, 2-(tert-Butoxy)-2-(1-(2-methoxyethyl)-6-methyl-4-(p-tolyl)-1H-pyrrolo[2,3-b]pyridin-5-yl)acetic acid]", "IC50": 4.1}, {"molecule": "Cc1ccc(-c2c(C(OC(C)(C)C)C(=O)O)c(C)nc3c2ccn3CC(C)(C)C)cc1", "note": "(centres unmarked) [Example 76, 2-(tert-butoxy)-2-(6-methyl-1-neopentyl-4-(p-tolyl)-1H-pyrrolo[2,3-b]pyridin-5-yl)acetic acid]", "IC50": 0.9}, {"molecule": "Cc1ccc(-c2c(C(OC(C)(C)C)C(=O)O)c(C)nc3c2ccn3Cc2ccc(Cl)cc2)cc1", "note": "(centres unmarked) [Example 77, 2-(tert-Butoxy)-2-(1-(4-chlorobenzyl)-6-methyl-4-(p-tolyl)-1H-pyrrolo[2,3-b]pyridin-5-yl)acetic acid]", "IC50": 0.65}, {"molecule": "Cc1ccc(-c2c(C(OC(C)(C)C)C(=O)O)c(C)nc3c2ccn3Cc2cc(F)cc(F)c2)cc1", "note": "(centres unmarked) [Example 78, 2-(tert-Butoxy)-2-(1-(3,5-difluorobenzyl)-6-methyl-4-(p-tolyl)-1H-pyrrolo[2,3-b]pyridin-5-yl)acetic acid]", "IC50": 0.35}, {"molecule": "Cc1ccc(-c2c(C(OC(C)(C)C)C(=O)O)c(C)nc3c2ccn3CCOCc2ccccc2)cc1", "note": "(centres unmarked) [Example 79, 2-(1-(2-(benzyloxy)ethyl)-6-methyl-4-(p-tolyl)-1H-pyrrolo[2,3-b]pyridin-5-yl)-2-(tert-butoxy)acetic acid]", "IC50": 4.87}, {"molecule": "Cc1ccc(-c2c(C(OC(C)(C)C)C(=O)O)c(C)nc3c2ccn3Cc2ccc3c(c2)OCO3)cc1", "note": "(centres unmarked) [Example 80, 2-(1-(Benzo[d][1,3]dioxol-5-ylmethyl)-6-methyl-4-(p-tolyl)-1H-pyrrolo[2,3-b]pyridin-5-yl)-2-(tert-butoxy)acetic acid]", "IC50": 0.8}, {"molecule": "Cc1nc2c(ccn2[C@H](C)c2ccc(F)cc2)c(-c2ccc3c(c2)CCCO3)c1C(OC(C)(C)C)C(=O)O", "note": "(some centres unmarked) [Example 81]", "IC50": 0.03}, {"molecule": "Cc1nc2c(ccn2C2(c3ccc(F)cc3)CC2)c(-c2ccc3c(c2)CCCO3)c1C(OC(C)(C)C)C(=O)O", "note": "(centres unmarked) [Example 82, 2-(tert-butoxy)-2-(4-(chroman-6-yl)-1-(1-(4-fluorophenyl)cyclopropyl)-6-methyl-1H-pyrrolo[2,3-b]pyridin-5-yl)acetic acid]", "IC50": 0.3}, {"molecule": "Cc1nc2c(ccn2[C@@H](C)c2ccc(F)cc2)c(-c2ccc3c(c2)CCCO3)c1C(OC(C)(C)C)C(=O)O", "note": "(some centres unmarked) [Example 83]", "IC50": 0.123}]}, {"tested_on": "HIV", "test": "MT4 assay: antiviral HIV activity in MT-4 cells", "format": "cell-based", "conditions": "read-out: HIV MT4 Assay IC50; HTLV-1 transformed cell line MT-4; read-out 96 hours later with cell titer glo; 10 point dose response", "in_short": "as §1", "units": {"IC50": "µM"}, "values": [{"molecule": "Cc1nc2c(ccn2C(C)c2ccc(F)c(F)c2)c(-c2ccc3c(c2)CCCO3)c1C(OC(C)(C)C)C(=O)O", "note": "(centres unmarked) [Example 71, 2-(tert-butoxy)-2-(4-(chroman-6-yl)-1-(1-(3,4-difluorophenyl)ethyl)-6-methyl-1H-pyrrolo[2,3-b]pyridin-5-yl)acetic acid]", "IC50": 0.016}, {"molecule": "Cc1nc2c(ccn2C(C)c2ccc(F)c(F)c2)c(-c2ccc3c(c2)CCCO3)c1C(OC(C)(C)C)C(=O)O", "note": "(centres unmarked) [Example 72, 2-(tert-butoxy)-2-(4-(chroman-6-yl)-1-(1-(3,4-difluorophenyl)ethyl)-6-methyl-1H-pyrrolo[2,3-b]pyridin-5-yl)acetic acid]", "IC50": 0.19}]}]}
